# PubChem BioAssay AID1918938 (Molecular Pharmacology Branch, DTP, NCI, 2023)
# System: 556581-035-R-J1-PDC complex spheroid viability
# Assay: Anticancer human tumor 556581-035-R-J1-PDC patient-derived ovarian carcinoma cell line growth inhibition
# Conditions: for IC50: curve of first compound; for viability, T/C: stronger effect = lower value
# Description: Multicellular complex tumor spheroid response to LSD1 Inhibitor Iadademstat in combination with a variety of drugs and investigational agents in selected tumor cell lines
# The current study was undertaken to assess response to LSD1 inhibitors in combination with standard-of-care drugs and investigational agents in solid tumor complex spheroid models as well as in the K-562 leukemia. Complex spheroids include a stromal component modeled by human endothelial cells (HUVEC) and fibroblasts modeled by human mesenchymal stem cells (MSCs). The concentration ranges selected for each drug and investigational agent were based upon clinically achievable concentrations if the clinical Cmax of the agent was known.
# Compounds. The drugs and investigational agents used in this study are listed on Table 1. All of the agents used, including staurosporine (NSC755774) and gemcitabine (NSC613327), were obtained from the Developmental Therapeutics Program, NCI. FDA-approved anticancer drugs are available from the NCI at http://dtp.nci.nih.gov/branches/dscb/oncology_drugset_explanation.html. Drugs and investigational agents were >95% pure by proton nuclear magnetic resonance (NMR) and liquid chromatography/mass spectrometry (LC/MS). Stock solutions were prepared at 400x in DMSO, stored at -70 degrees C, and diluted in fresh medium prior to their use. The final concentration of DMSO in cell culture wells never exceeded 0.25% (v/v). The FDA-approved anticancer drug set is available from the Developmental Therapeutics Program at https://dtp.cancer.gov/organization/dscb/obtaining/available_plates.htm. All drugs and investigational agents were tested over a range starting from a high concentration at or near the clinical Cmax and decreasing in half-log increments. If the clinical Cmax for an agent had not been determined, the highest concentration tested was 10 microM.
# Cell Lines. The patient-derived cancer cell (PDC) lines: 292921-168-R-J2-PDC, K24384-001-R-PDC, and 521955-158-R2-J5-PDC pancreatic carcinomas, 556581-035-R-J1 ovarian carcinoma, 324938-238-R-J1-PDC, 855422-203-R-J1-PDC and 883617-216-R-J1-PDC urothelial bladder carcinomas, 743489-274-T-PDC renal cell carcinoma, 138582-R-J1 Merkel cell tumor, K60290-347-R-J1 and K57222-313-R-J1-PDC glioblastomas, 653999-131-R-J2-PDC, LG0703-F948-PDC, and 349418-098-R-PDC non-small cell lung carcinomas, 885512-296-R-J2-PDC, 171881-019-R-J1-PDC breast carcinomas and 186277-243-T-J2-PDC and 233499-124-R-J2-PDC colon carcinomas were obtained from the NCI Patient-Derived Models Repository (PDMR, https://pdmr.cancer.gov). The established cell lines NCI/ADR-RES (RRID:CVCL_14520 and OVCAR-5 (RRID:CVCL_1628) ovarian carcinomas, 786-O (RRID:CVCL_1051) and A498 (RRID:CVCL_A498) renal cell carcinoma, NCI-H211 (ATCC, cat. CRL-5824; RRID:CVCL_1529), NCI-H196 (ATCC, cat. CRL-5823, RRID:CVCL_1509), SW 1271 (ATCC, cat. CRL-2177, RRID:CVCL_1716) and NCI-H1876 (ATCC, cat. CRL-5902, RRID:CVCL_1503) small cell lung carcinomas, MDA-MB-231 (RRID:CVCL_0062) and MDA-MB-468 (RRID:CVCL_0419)breast carcinomas (10-12). Pooled donor human umbilical vein endothelial cells (HUVEC, Lonza, cat. CC-2519) and human mesenchymal stem cells (hMSC, Lonza, cat. PT-2501) were purchased from Lonza (Walkersville, MD).
# Cell Culture. All cells were maintained in an incubator at 37 degrees C and 5% CO2 with 95% humidity. The PDC lines were cultured according to standard operating procedures established by the NCI PDMR (https://pdmr.cancer.gov). Briefly all PDCs were thawed and cultured in Matrigel-coated flasks prepared with a working solution of 1X Ham's F-12 nutrient mix, without supplementation (Invitrogen, Waltham, MA, cat. 11765054), 100 U/mL penicillin-streptomycin (Invitrogen, cat. 15140122), and 2.5% Matrigel (Corning Inc., Corning, NY, cat. 354248) for the first three passages. […]
# [1] = second compound 0.1 µM, first compound 0.00949 µM
# [2] = second compound 0.1 µM, first compound 0.03 µM
# [3] = second compound 0.1 µM, first compound 0.0949 µM
# [4] = second compound 0.1 µM, first compound 0.3 µM
# [5] = second compound 0.1 µM, first compound 0.949 µM
# [6] = second compound 0.1 µM, first compound 3 µM
# [7] = second compound 0.316 µM, first compound 0.00949 µM
# [8] = second compound 0.316 µM, first compound 0.03 µM
# [9] = second compound 0.316 µM, first compound 0.0949 µM
# [10] = second compound 0.316 µM, first compound 0.3 µM
# [11] = second compound 0.316 µM, first compound 0.949 µM
# [12] = second compound 0.316 µM, first compound 3 µM
# [13] = second compound 1 µM, first compound 0.00949 µM
# [14] = second compound 1 µM, first compound 0.03 µM
# [15] = second compound 1 µM, first compound 0.0949 µM
# [16] = second compound 1 µM, first compound 0.3 µM
# [17] = second compound 1 µM, first compound 0.949 µM
# [18] = second compound 1 µM, first compound 3 µM
# [19] = second compound 3.16 µM, first compound 0.00949 µM
# [20] = second compound 3.16 µM, first compound 0.03 µM
# [21] = second compound 3.16 µM, first compound 0.0949 µM
# [22] = second compound 3.16 µM, first compound 0.3 µM
# [23] = second compound 3.16 µM, first compound 0.949 µM
# [24] = second compound 3.16 µM, first compound 3 µM
# [25] = second compound 10 µM, first compound 0.00949 µM
# [26] = second compound 10 µM, first compound 0.03 µM
# [27] = second compound 10 µM, first compound 0.0949 µM
# [28] = second compound 10 µM, first compound 0.3 µM
# [29] = second compound 10 µM, first compound 0.949 µM
# [30] = second compound 10 µM, first compound 3 µM
# 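Note: spheroids exposed to agents for seven days.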
# 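Throughout, for viability, T/C: 100% = DMSO vehicle control wells.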
SMILES,IC50 (second compound 0.1 µM) [nM],IC50 (second compound 0.316 µM) [nM],IC50 (second compound 1 µM) [nM],IC50 (second compound 3.16 µM) [nM],IC50 (second compound 10 µM) [nM],"viability, T/C [1] [%]","viability, T/C [2] [%]","viability, T/C [3] [%]","viability, T/C [4] [%]","viability, T/C [5] [%]","viability, T/C [6] [%]","viability, T/C [7] [%]","viability, T/C [8] [%]","viability, T/C [9] [%]","viability, T/C [10] [%]","viability, T/C [11] [%]","viability, T/C [12] [%]","viability, T/C [13] [%]","viability, T/C [14] [%]","viability, T/C [15] [%]",further results
Nc1ccccc1NC(=O)c1ccc(CNC(=O)OCc2cccnc2)cc1 + NC1CC1c1ccc(-c2cccc(O)c2)cc1,87.6,95.3,85.9,97.4,94,91.9,77.1,47.3,21.1,6.12,0.47,92.1,70.1,54.5,23.7,8.22,0.62,92.8,64.3,55.9,"viability, T/C [16]: 24.9%; viability, T/C [17]: 9.16%; viability, T/C [18]: 5.91%; viability, T/C [19]: 90.2%; viability, T/C [20]: 72.7%; viability, T/C [21]: 51.5%; viability, T/C [22]: 26.6%; viability, T/C [23]: 10.4%; viability, T/C [24]: 0.51%; viability, T/C [25]: 86.5%; viability, T/C [26]: 69.1%; viability, T/C [27]: 46.5%; viability, T/C [28]: 37.3%; viability, T/C [29]: 10.1%; viability, T/C [30]: 0.3%"
O=C(C=Cc1cccc(S(=O)(=O)Nc2ccccc2)c1)NO + NC1CC1c1ccc(-c2cccc(O)c2)cc1,65.8,70.7,69.2,66.5,63.6,85.4,75.1,36.9,14.6,1.81,0.79,78.8,69.1,43.9,8.31,0.59,0.61,79.5,72.9,40.6,"viability, T/C [16]: 13.6%; viability, T/C [17]: 0.92%; viability, T/C [18]: 0.19%; viability, T/C [19]: 82.8%; viability, T/C [20]: 74.1%; viability, T/C [21]: 37.5%; viability, T/C [22]: 16.5%; viability, T/C [23]: 0.75%; viability, T/C [24]: 1.27%; viability, T/C [25]: 74%; viability, T/C [26]: 65.2%; viability, T/C [27]: 41.4%; viability, T/C [28]: 17.4%; viability, T/C [29]: 0.56%; viability, T/C [30]: 1.22%"
